# Target: glucosylceramide synthase (GCS) (Homo sapiens (Human), UniProt Q16739)
# Assay: UDP-Glo glucosylceramide synthase biochemical assay
# Conditions: endogenous GCS in Golgi preparations from human A375 malignant melanoma skin cells; C6 ceramide and UDP-glucose substrates; 20 h incubation; UDP detected by luminescence
# Summary of the method: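 Endogenous GCS in Golgi preparations from A375 melanoma cells (1.5 μg total protein) preincubated 30 min at room temperature with compound. UDP-glucose and ceramide then added for 20 h at room temperature; UDP measured by luciferase luminescence. Normalized to DMSO (0%) and reference inhibitor (100%); EC50 and % Emax from 4PL fit.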
# Sequence of glucosylceramide synthase (GCS) (Q16739 whole entry): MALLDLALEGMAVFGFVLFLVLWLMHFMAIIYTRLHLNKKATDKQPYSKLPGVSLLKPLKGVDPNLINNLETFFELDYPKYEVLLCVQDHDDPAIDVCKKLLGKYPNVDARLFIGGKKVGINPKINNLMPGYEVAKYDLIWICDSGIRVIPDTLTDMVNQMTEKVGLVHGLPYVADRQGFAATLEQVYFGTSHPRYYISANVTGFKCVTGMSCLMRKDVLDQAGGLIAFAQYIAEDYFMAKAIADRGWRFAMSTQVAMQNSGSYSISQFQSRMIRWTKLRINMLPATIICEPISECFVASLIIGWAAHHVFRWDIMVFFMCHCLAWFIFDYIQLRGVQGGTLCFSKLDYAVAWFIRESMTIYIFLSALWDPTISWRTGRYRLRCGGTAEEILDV
row,SMILES,EC50
1,"CC(C)(O)c1cn2cc(Cl)cc(-c3ccccc3OCC(F)(F)F)c2n1 [Compound 66, 2-(6-chloro-8-(2-(2,2,2-trifluoroethoxy)phenyl)imidazo[1,2-a]pyridin-2-yl)propan-2-ol]",15 nM
2,"CC(C)(C)NCc1cn2cccc(-c3ccccc3OCC(F)(F)F)c2n1 [Compound 79, 2-methyl-N-((8-(2-(2,2,2-trifluoroethoxy)phenyl)imidazo[1,2-a]pyridin-2-yl)methyl)propan-2-amine]",140 nM
3,"CC1(CO)COC(c2cn3cc(Cl)cc(-c4ccccc4OCC(F)(F)F)c3n2)=N1 (centres unmarked) [Compound 73, [2-[6-chloro-8-[2-(2,2,2-trifluoroethoxy)phenyl]imidazo[1,2-a]pyridin-2-yl]-4-methyl-5H-oxazol-4-yl]methanol]",32 nM

# Compounds with a lower EC50, results first:
row,EC50,SMILES
1,13 nM,"CC(C)(O)C1CN=C(c2cn3cc(Cl)cc(-c4ccccc4OCC(F)(F)F)c3n2)O1 (centres unmarked) [Compound 76, 2-[2-[6-chloro-8-[2-(2,2,2-trifluoroethoxy)phenyl]imidazo[1,2-a]pyridin-2-yl]-4,5-dihydrooxazol-5-yl]propan-2-ol]"
2,1.3 nM,"O=C(N[C@H]1CC[C@@H](CO)CC1)c1cn2cc(F)cc(-c3ccccc3OCC(F)(F)F)c2n1 [Compound 27, 6-fluoro-N-(cis-4-(hydroxymethyl)cyclohexyl)-8-(2-(2,2,2-trifluoroethoxy)phenyl)imidazo[1,2-a]pyridine-2-carboxamide]"

# — US20240018140A1, “MODIFIED IMIDAZOPYRIDINES AS GLUCOSYLCERAMIDE SYNTHASE INHIBITORS” (Merck Sharp & Dohme LLC, priority 2020, published 2024)
